ChEMBL document CHEMBL1131425 (J Med Chem, 1998)

Columns and labels:
[1] = target: T1, 5-hydroxytryptamine receptor 1A (Rattus norvegicus, UniProt P19327); test: Binding affinity against rat 5-hydroxytryptamine 1A receptor in CHO cells.; type: cell-based
T1 sequence (P19327 whole entry): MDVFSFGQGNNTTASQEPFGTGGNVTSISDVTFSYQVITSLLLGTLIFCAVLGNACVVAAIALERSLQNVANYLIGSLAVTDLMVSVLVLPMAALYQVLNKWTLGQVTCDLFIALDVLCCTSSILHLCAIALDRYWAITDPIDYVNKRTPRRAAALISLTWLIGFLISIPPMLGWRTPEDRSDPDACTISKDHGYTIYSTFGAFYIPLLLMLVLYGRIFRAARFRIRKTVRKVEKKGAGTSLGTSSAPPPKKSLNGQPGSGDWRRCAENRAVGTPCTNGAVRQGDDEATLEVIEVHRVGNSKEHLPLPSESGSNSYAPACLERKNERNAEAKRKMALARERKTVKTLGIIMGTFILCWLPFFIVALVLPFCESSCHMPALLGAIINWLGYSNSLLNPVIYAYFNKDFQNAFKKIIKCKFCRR

[2] = target: 5-hydroxytryptamine receptor 2A (Rattus norvegicus, UniProt P14842); test: Binding affinity against rat 5-hydroxytryptamine 2A receptor in NIH3T3 cells.; type: cell-based
5-hydroxytryptamine receptor 2A, sequence (P14842 whole entry): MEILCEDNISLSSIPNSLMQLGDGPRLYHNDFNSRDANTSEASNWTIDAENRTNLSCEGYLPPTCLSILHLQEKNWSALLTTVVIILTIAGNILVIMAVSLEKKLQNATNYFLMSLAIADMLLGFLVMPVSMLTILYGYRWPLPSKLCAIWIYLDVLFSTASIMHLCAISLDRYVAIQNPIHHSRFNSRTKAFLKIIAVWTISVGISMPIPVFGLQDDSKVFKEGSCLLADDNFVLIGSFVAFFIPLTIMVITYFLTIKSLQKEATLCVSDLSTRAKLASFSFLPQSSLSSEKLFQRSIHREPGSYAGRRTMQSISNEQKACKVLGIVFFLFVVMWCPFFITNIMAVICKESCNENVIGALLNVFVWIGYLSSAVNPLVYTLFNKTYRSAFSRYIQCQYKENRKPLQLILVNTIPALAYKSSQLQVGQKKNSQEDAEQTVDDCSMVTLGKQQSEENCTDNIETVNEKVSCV

[3] = target: T2, 5-hydroxytryptamine receptor 2C (Rattus norvegicus, UniProt P08909); test: Binding affinity against rat 5-hydroxytryptamine 2C receptor in A-9 cells.; type: cell-based
T2 sequence (P08909 whole entry): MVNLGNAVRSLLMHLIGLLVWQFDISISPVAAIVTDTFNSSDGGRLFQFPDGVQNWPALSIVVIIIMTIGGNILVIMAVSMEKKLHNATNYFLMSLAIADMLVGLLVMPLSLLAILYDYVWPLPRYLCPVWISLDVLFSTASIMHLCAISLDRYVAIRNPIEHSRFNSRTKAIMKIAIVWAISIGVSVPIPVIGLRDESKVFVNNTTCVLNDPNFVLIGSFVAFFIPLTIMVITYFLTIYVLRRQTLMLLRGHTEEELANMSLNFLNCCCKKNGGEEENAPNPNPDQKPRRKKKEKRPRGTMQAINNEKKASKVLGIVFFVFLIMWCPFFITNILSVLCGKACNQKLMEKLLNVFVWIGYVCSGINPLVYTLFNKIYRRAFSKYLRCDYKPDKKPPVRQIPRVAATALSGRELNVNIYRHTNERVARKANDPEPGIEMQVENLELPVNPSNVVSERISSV

D(2) dopamine receptor = D(2) dopamine receptor (Rattus norvegicus, UniProt P61169); test: Binding affinity against rat Dopamine receptor D2.
D(2) dopamine receptor, sequence (P61169 whole entry): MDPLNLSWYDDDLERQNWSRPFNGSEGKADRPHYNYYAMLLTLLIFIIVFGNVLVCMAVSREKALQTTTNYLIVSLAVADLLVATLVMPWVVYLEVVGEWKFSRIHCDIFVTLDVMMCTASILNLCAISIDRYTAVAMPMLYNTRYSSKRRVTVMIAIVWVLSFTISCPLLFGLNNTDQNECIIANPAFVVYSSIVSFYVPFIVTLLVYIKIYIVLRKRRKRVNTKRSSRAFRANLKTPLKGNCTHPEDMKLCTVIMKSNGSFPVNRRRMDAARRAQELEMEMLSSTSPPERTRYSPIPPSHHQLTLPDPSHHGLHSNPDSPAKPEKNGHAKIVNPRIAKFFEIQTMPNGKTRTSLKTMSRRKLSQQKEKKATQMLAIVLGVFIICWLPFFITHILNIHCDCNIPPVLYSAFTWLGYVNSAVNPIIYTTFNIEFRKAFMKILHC

Compound	Ki [1] [nM]	Ki [2] [nM]	Ki [3] [nM]	Ki (D(2) dopamine receptor) [nM]
CCCN1CN(C)C2(CCN(CCCOc3ccc(F)cc3)CC2)C1=O	> 10000	19	> 10000	230
NC(=O)C1(NC2CCCCC2)CCN(CCCC(=O)c2ccc(F)cc2)CC1	1610	6	270	43
CN1CN(C)C2(CCN(CCCC(=O)c3ccc(F)cc3)CC2)C1=O	> 10000	45	> 10000	300
CNC1(C(N)=O)CCN(CCCC(=O)c2ccc(F)cc2)CC1	> 10000	130	4480	–
O=C(CCCN1CCC2(CC1)C(=O)NCN2C1CCCCC1)c1ccc(F)cc1	–	0.7	677	0.7
CCN1CN(C)C2(CCN(CCCC(=O)c3ccc(F)cc3)CC2)C1=O	> 10000	21	> 10000	–
CCCN1CN(C)C2(CCN(CCCC(=O)c3ccc(F)cc3)CC2)C1=O	> 10000	20	> 10000	130
CC(C)N1CN(C)C2(CCN(CCCC(=O)c3ccc(F)cc3)CC2)C1=O	6300	7	> 10000	46
O=C(CCCN1CCC2(CC1)C(=O)NCN2c1ccccc1)c1ccc(F)cc1 [SPIPERONE]	58	–	–	–
CC(C)NC1(C(N)=O)CCN(CCCC(=O)c2ccc(F)cc2)CC1	> 10000	14	426	400
CCN1CNC(=O)C12CCN(CCCC(=O)c1ccc(F)cc1)CC2	7960	170	> 10000	170
CCCCN1CN(C)C2(CCN(CCCC(=O)c3ccc(F)cc3)CC2)C1=O	> 10000	19	> 10000	13
NC(=O)C1(N)CCN(CCCC(=O)c2ccc(F)cc2)CC1	–	420	> 10000	–
CN1CN(Cc2ccccc2)C(=O)C12CCN(CCCC(=O)c1ccc(F)cc1)CC2	265	22	1400	–
CN1CNC(=O)C12CCN(CCCC(=O)c1ccc(F)cc1)CC2	> 10000	23	> 10000	220
CC(C)N1CNC(=O)C12CCN(CCCC(=O)c1ccc(F)cc1)CC2	2340	38	> 10000	400
CN1CNC(=O)C12CCN(CCCOc1ccc(F)cc1)CC2	–	35	> 10000	734
O=C(CCCN1CCC2(CC1)NCNC2=O)c1ccc(F)cc1	> 10000	5600	> 10000	–
